The target of data set [1] is T1, 5-hydroxytryptamine receptor 1A (Homo sapiens, UniProt P08908).
T1 sequence (P08908 whole entry): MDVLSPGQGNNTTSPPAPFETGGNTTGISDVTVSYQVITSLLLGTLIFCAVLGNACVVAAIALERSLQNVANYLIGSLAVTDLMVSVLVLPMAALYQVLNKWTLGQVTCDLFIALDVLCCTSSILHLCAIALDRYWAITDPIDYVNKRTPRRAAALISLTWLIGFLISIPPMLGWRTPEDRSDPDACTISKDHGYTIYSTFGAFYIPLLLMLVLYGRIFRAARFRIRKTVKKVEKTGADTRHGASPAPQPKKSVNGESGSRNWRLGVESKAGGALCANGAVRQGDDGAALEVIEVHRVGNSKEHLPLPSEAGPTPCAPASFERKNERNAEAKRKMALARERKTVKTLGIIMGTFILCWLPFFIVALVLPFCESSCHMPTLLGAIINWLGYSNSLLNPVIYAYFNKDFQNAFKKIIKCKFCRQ
The data set can be described thus: biochemical.
Description: Displacement of [3H]8-OH-DPAT from human 5HT1A receptor expressed in HEK293 EBNA cells after 2 hrs by liquid scintillation counting

Data set [2] has as its target T2, Alpha-1A adrenergic receptor (Homo sapiens, UniProt P35348).
T2 sequence (P35348 whole entry): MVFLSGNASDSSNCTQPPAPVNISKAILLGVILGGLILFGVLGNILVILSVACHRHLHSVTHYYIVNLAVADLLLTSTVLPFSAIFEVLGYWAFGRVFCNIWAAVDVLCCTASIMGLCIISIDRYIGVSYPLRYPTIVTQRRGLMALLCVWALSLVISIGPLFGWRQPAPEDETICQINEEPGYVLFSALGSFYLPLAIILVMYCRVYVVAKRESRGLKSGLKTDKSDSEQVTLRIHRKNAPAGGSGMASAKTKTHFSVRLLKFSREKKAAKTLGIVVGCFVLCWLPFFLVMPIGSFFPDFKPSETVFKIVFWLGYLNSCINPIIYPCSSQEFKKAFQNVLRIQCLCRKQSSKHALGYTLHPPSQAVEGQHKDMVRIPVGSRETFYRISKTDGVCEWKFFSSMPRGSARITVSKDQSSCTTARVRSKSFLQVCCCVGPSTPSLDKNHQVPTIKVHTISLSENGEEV
Description: Binding affinity to alpha1A receptor

In data set [3] the test system is Hepatocyte. As to conditions: human, hepatocytes, 2.5 h.
Description: Metabolic stability in human hepatocytes assessed as compound remaining at 50 MBq after 150 mins by radioactivity-based HPLC analysis
The next data set is described as follows: physchem. As to conditions: buffer, pH 7.4.
A further data set addresses T3, D(4) dopamine receptor (Homo sapiens, UniProt P21917).
T3 sequence (P21917 whole entry): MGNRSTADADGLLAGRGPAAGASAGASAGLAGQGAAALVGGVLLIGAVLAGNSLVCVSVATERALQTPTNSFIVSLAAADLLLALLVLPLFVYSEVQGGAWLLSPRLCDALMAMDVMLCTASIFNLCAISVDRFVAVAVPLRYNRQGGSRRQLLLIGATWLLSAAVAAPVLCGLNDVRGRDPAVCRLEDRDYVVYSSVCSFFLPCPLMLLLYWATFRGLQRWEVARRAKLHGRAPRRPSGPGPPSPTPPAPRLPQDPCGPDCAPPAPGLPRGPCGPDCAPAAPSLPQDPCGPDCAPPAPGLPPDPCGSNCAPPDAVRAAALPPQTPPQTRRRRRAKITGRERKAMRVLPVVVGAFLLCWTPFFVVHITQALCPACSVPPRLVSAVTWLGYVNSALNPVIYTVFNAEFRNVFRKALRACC
The data set is described as follows: biochemical.

Data set [4] addresses T4, Alpha-1D adrenergic receptor (Homo sapiens, UniProt P25100).
T4 sequence (P25100 whole entry): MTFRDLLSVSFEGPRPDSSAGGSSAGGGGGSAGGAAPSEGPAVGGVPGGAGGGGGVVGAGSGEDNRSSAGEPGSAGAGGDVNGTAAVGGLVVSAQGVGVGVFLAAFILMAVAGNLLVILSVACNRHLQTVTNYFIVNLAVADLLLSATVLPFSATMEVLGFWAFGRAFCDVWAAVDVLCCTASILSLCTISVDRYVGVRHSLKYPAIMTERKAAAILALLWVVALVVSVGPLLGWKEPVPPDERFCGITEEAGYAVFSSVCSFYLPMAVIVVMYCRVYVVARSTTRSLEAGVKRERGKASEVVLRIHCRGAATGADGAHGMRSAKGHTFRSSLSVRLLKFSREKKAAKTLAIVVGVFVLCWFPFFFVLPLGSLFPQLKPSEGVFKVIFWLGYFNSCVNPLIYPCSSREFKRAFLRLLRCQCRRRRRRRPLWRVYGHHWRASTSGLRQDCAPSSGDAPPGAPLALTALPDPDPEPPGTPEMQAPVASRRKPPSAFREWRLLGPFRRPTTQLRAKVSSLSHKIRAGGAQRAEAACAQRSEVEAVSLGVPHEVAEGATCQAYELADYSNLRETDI
The data set is described as follows: biochemical.
Description: Displacement of [3H]prazosin from Alpha-1D receptor expressed in HEK293 EBNA cells by radioligand binding assay

Data set [5] has as its target T5, Alpha-1B adrenergic receptor (Homo sapiens, UniProt P35368).
T5 sequence (P35368 whole entry): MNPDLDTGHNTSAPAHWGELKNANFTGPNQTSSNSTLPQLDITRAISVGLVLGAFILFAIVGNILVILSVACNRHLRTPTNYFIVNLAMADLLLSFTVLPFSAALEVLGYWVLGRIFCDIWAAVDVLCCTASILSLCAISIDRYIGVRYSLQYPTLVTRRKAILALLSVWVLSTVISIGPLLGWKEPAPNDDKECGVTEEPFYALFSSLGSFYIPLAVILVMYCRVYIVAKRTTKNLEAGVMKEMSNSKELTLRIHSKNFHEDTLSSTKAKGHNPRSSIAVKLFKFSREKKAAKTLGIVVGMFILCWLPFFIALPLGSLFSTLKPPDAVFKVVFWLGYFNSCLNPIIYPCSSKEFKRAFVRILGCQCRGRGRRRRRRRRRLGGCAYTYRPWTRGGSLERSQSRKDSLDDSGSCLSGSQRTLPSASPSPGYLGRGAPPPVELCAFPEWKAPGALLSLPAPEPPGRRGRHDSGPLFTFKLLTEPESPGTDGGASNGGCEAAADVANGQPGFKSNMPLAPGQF
The data set is described as follows: biochemical.
Description: Displacement of [3H]prazosin from Alpha-1B receptor expressed in HEK293 EBNA cells by radioligand binding assay

In data set [6] the target is T2, Alpha-1A adrenergic receptor. The data set is described as follows: biochemical.
Description: Displacement of [3H]prazosin from alpha1A receptor expressed in HEK293 EBNA cells by radioligand binding assay
Data set [7] addresses 5-hydroxytryptamine receptor 1D (Homo sapiens, UniProt P28221). The data set is described as follows: biochemical.
Description: Displacement of [3H]GR127543 from 5HT1D receptor expressed in HEK293 EBNA cells by radioligand binding assay
For data set [8], the target named is 5-hydroxytryptamine receptor 7 (Homo sapiens, UniProt P34969). The data set can be described thus: biochemical.
Description: Displacement of [3H]LSD from 5HT7 receptor expressed in HEK293 EBNA cells by radioligand binding assay
Data set [9] has as its target 5-hydroxytryptamine receptor 2B (Homo sapiens, UniProt P41595). The data set can be described thus: biochemical.
Description: Displacement of [3H]LSD from 5HT2B receptor expressed in HEK293 EBNA cells by radioligand binding assay
For data set [10], the target named is T1, 5-hydroxytryptamine receptor 1A. The data set can be described thus: biochemical. The source holds these as a separate data set.
Description: Displacement of [3H]8-OH-DPAT from 5HT1A receptor expressed in HEK293 EBNA cells by radioligand binding assay
The subject of data set [11] is Hepatocyte. To be noted: human, hepatocytes, 1 h.
Description: Metabolic stability in human hepatocytes assessed as compound remaining at 50 MBq after 60 mins by radioactivity-based HPLC analysis
For data set [12], the system named is Hepatocyte. To be noted: human, hepatocytes, 0.25 h.
Description: Metabolic stability in human hepatocytes assessed as compound remaining at 50 MBq after 15 mins by radioactivity-based HPLC analysis

The structures appear in SMILES notation. pIC50, pKi: −log10 of the molar value.

Here are results for eleven molecules from ChEMBL document CHEMBL1909551, “Design, synthesis and in vitro evaluation of bridgehead fluoromethyl analogs of N-{2-[4-(2-methoxyphenyl)piperazin-1-yl]ethyl}-N-(pyridin-2-yl)cyclohexanecarboxamide (WAY-100635) for the 5-HT(1A) receptor” (Eur J Med Chem, 2011).

5-hydroxytryptamine receptor 7, sequence (P34969 whole entry): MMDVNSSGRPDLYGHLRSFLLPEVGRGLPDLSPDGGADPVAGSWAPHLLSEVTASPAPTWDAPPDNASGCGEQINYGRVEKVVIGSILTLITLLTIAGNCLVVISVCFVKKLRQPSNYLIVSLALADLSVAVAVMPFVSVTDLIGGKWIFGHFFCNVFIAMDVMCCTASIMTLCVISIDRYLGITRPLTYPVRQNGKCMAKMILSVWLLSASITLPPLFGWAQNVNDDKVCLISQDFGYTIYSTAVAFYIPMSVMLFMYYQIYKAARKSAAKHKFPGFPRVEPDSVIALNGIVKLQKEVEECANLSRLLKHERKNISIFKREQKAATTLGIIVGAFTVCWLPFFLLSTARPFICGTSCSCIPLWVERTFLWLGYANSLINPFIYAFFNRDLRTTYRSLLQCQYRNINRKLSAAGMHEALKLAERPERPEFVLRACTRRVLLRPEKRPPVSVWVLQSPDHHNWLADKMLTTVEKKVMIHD
5-hydroxytryptamine receptor 1D, sequence (P28221 whole entry): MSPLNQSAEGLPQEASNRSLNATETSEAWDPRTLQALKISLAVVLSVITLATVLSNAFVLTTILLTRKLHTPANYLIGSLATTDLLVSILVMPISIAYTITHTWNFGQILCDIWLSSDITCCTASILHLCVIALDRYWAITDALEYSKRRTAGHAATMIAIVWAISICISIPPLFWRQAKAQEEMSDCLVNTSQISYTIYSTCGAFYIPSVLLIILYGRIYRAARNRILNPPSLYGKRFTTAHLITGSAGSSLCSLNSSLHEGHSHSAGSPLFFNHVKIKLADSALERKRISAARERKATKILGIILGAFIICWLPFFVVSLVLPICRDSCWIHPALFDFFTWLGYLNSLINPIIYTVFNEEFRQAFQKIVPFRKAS
5-hydroxytryptamine receptor 2B, sequence (P41595 whole entry): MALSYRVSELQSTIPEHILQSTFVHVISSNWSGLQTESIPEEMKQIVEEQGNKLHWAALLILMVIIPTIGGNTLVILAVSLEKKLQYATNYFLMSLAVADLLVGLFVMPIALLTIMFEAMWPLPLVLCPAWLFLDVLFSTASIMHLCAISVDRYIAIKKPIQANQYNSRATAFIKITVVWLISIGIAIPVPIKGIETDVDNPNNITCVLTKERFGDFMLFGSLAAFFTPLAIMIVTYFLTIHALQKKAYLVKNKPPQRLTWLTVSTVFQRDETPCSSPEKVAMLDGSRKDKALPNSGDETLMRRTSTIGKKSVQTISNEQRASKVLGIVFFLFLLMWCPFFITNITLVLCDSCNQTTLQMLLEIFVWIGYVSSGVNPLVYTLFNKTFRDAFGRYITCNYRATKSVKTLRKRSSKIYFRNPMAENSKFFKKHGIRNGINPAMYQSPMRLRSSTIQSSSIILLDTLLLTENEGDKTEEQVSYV
Description for D(4) dopamine receptor: Displacement of [3H]N-methylspiperone from dopamine D4 receptor expressed in HEK293 EBNA cells by radioligand binding assay

As usually defined, the pIC50 is the negative decadic logarithm of the IC50, by convention in mol/L. The low end stands for a high IC50, the high end for a low IC50. Broadly, the pKi is the Ki on a negative log10 scale, so that one unit is a factor of ten. Higher therefore signals a low Ki. In data set [1], `COc1ccccc1N1CCN(CCN(C(=O)C23CC4CC(CC(CF)(C4)C2)C3)c2ccccn2)CC1` had a negative-log IC50 (pIC50) of 8.37 and a pKi of 8.74.
The matching figures for `O=C(N(CCN1CCN(c2ccccc2O)CC1)c1ccccn1)C12CCC(CF)(CC1)CC2`: 8.75 and 9.12.
As to `COc1ccccc1N1CCN(CCN(C(=O)c2ccc([18F])c(C)c2)c2ccccn2)CC1`, in data set [2], the pKi was 7.88.
In turn, `COc1ccccc1N1CCN(CCN(C(=O)c2ccc([18F])cc2)c2ccccn2)CC1` had a pKi in [2] of 6.82. The molecule also gave a Stability with Hepatocyte [3] of 8.4%.
On to `O=C(N(CCN1CCN(c2ccccc2O)CC1)c1ccccn1)C12C3C4C1C1C2C3C41CF` (centres undefined), for which, in [1], the pIC50 was 8.87 and the pKi is 9.24.
In general, logD refers to the decadic logarithm of the distribution of all forms, ionised or not, between an organic phase and buffer at a given pH. Low values mean a more hydrophilic compound, high ones a more lipophilic compound. The molecule `COc1ccccc1N1CCN(CCN(C(=O)C23CCC(CF)(CC2)C3)c2ccccn2)CC1` registered a logD in “physchem” of 2.7. The same molecule gave a pIC50 in [1] of 8.69. The pKi is 9.07 in data set [1]; 7.04 on D(4) dopamine receptor; 7.72 in data set [4]; 7.42 in data set [5]; 7.44 in data set [6]; 7.04 in data set [7]. Besides, the results for the pKi in [8], in data set [9] and in data set [10] were 7.01, 7.06 and 9.05, respectively.
Take `COc1ccccc1N1CCN(CCN(C(=O)C23CCC(CF)(CC2)CC3)c2ccccn2)CC1`: the logD in the data set “physchem” was 3.37. The pIC50 in data set [1] was 8.82. In addition, the pKi is 9.19 in data set [1]; 7.08 on D(4) dopamine receptor; 7.14 in data set [4]; 6.96 in data set [5]; 7.13 in [6]; 6.44 in data set [7]. Moreover, the pKi in data set [8] is 7.11; in data set [9] it was 7.10; in [10] it was 8.96.
Regarding `COc1ccccc1N1CCN(CCN(C(=O)C23C4C5C2C2C3C4C52C[18F])c2ccccn2)CC1` (centres undefined), the Stability in the data set on Hepatocyte [3] came out at 17.4%; in the data set on Hepatocyte [11] it was 30.7%; in the data set on Hepatocyte [12], 73.2%.
In data set [1], `O=C(N(CCN1CCN(c2ccccc2O)CC1)c1ccccn1)C12CC3CC(CC(CF)(C3)C1)C2` showed a pIC50 of 8.59 and a negative logarithm of the Ki (pKi) of 8.96.
The matching figures for `O=C(N(CCN1CCN(c2ccccc2O)CC1)c1ccccn1)C12CCC(CF)(CC1)C2`: 8.76 and 9.13.
In the case of `COc1ccccc1N1CCN(CCN(C(=O)C23C4C5C2C2C3C4C52CF)c2ccccn2)CC1` (centres undefined), the logD in the data set “physchem” is 2.94. This molecule gave a pIC50 in data set [1] of 8.90. The pKi was 9.27 in [1]; 7.15 at D(4) dopamine receptor; 7.57 in [4]; 6.75 in data set [5]; 7.80 in [6]; 6.91 in data set [7]. The pKi in [8] was 6.88; in [9] it was 7.00; in [10] it was 9.70.
